In ChEMBL document CHEMBL1201862, “PubChem BioAssay data set” (2004):
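48-hour exposure; five concentrations; linearly interpolated endpoints. GI50 marks 50% less growth.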 Calls of active or inactive are those of the source. Rule as the data show it: active = GI50 up to about 1.1 µM and inactive = higher.

Legend:
Assay in all cases: DTP human tumour cell line panel, 48 h
[1] = test system: EKVX
[2] = test system: UO-31
[3] = test system: SNB-75
[4] = test system: A498
[5] = test system: IGROV-1
[6] = test system: CCRF-CEM
[7] = test system: A549
[8] = test system: NCI-H23
[9] = test system: SK-MEL-5
[10] = test system: HOP-92
[11] = test system: M19-MEL
[12] = test system: COLO 205
[13] = test system: M14
[14] = test system: SK-OV-3
[15] = test system: SNB-19
[16] = test system: TK-10
[17] = test system: K562

| SMILES | GI50 [1] | GI50 [2] | GI50 [3] | GI50 [4] | GI50 [5] | GI50 [6] | GI50 [7] | GI50 [8] | GI50 [9] | GI50 [10] | GI50 [11] | GI50 [12] | GI50 [13] | GI50 [14] | GI50 [15] | GI50 [16] | GI50 [17] |
| --- | --- | --- | --- | --- | --- | --- | --- | --- | --- | --- | --- | --- | --- | --- | --- | --- | --- |
| CN(C)CCNC(=O)c1cccc2c1nc(-c1ccncc1)c1ccccc12 | 2.47 µM (inactive) | 1.63 µM (inactive) | 3.36 µM (inactive) | 1.15 µM (inactive) | 1.02 µM (active) | 2.4 µM (inactive) | 0.552 µM (active) | 3.07 µM (inactive) | 1.81 µM (inactive) | 2.09 µM (inactive) | 2.82 µM (inactive) | 1.61 µM (inactive) | 4.83 µM (inactive) | 5.71 µM (inactive) | 3.94 µM (inactive) | 2.21 µM (inactive) | 3.14 µM (inactive) |
| Cc1ccc(Oc2ccc(C)cc2N)cc1 | 71 µM (inactive) | 34.8 µM (inactive) | 16.5 µM (inactive) | > 100 µM (inactive) | > 100 µM (inactive) | 41.6 µM (inactive) | > 100 µM (inactive) | 94.4 µM (inactive) | 44.1 µM (inactive) | 32.3 µM (inactive) | > 100 µM (inactive) | > 100 µM (inactive) | > 100 µM (inactive) | > 100 µM (inactive) | > 100 µM (inactive) | > 100 µM (inactive) | 60.8 µM (inactive) |
| CC1=NN(c2ccccc2)C(=O)C1=C1SCCS1 | 47.5 µM (inactive) | 37.9 µM (inactive) | > 88.1 µM (inactive) | > 77.1 µM (inactive) | 82.4 µM (inactive) | 29.2 µM (inactive) | > 70 µM (inactive) | > 100 µM (inactive) | 59.3 µM (inactive) | 37 µM (inactive) | 41.8 µM (inactive) | 25.1 µM (inactive) | > 79.4 µM (inactive) | > 100 µM (inactive) | > 86.7 µM (inactive) | > 55.1 µM (inactive) | 43.6 µM (inactive) |
| COc1ccc(/C=C\c2cc(OC)c3c(c2)OCO3)c(O)c1O | 11.7 µM (inactive) | 5.87 µM (inactive) | 0.0256 µM (active) | 8.3 µM (inactive) | 4.71 µM (inactive) | 2.98 µM (inactive) | 9.04 µM (inactive) | 4.98 µM (inactive) | 2.3 µM (inactive) | 5.55 µM (inactive) | 6.19 µM (inactive) | 21.2 µM (inactive) | 3.56 µM (inactive) | 18.6 µM (inactive) | 4.74 µM (inactive) | 24.9 µM (inactive) | 4.14 µM (inactive) |
| NNC(=O)/C(NC(=O)c1ccccc1)=C(\N)c1cccc([N+](=O)[O-])c1 | > 100 µM (inactive) | > 100 µM (inactive) | > 100 µM (inactive) | > 100 µM (inactive) | > 100 µM (inactive) | > 100 µM (inactive) | > 100 µM (inactive) | > 100 µM (inactive) | > 100 µM (inactive) | > 100 µM (inactive) | > 100 µM (inactive) | > 100 µM (inactive) | > 100 µM (inactive) | > 100 µM (inactive) | > 100 µM (inactive) | > 100 µM (inactive) | > 100 µM (inactive) |
| CCOP(=O)(OCC)C(C(=O)OC)C(=O)C(=O)Nc1c(C)cc(Br)cc1C (stereo not drawn) | > 100 µM (inactive) | > 100 µM (inactive) | > 100 µM (inactive) | > 100 µM (inactive) | > 100 µM (inactive) | > 100 µM (inactive) | > 100 µM (inactive) | > 100 µM (inactive) | > 100 µM (inactive) | > 100 µM (inactive) | > 100 µM (inactive) | > 100 µM (inactive) | > 100 µM (inactive) | > 100 µM (inactive) | > 100 µM (inactive) | > 100 µM (inactive) | > 100 µM (inactive) |
| COc1ccc2oc3c4c2c1CCC4CCC3=O (stereo not drawn) | > 100 µM (inactive) | 25.2 µM (inactive) | 28.1 µM (inactive) | 6.75 µM (inactive) | > 100 µM (inactive) | > 100 µM (inactive) | > 100 µM (inactive) | > 100 µM (inactive) | > 100 µM (inactive) | 55.7 µM (inactive) | > 100 µM (inactive) | > 100 µM (inactive) | > 100 µM (inactive) | > 100 µM (inactive) | > 100 µM (inactive) | 5.47 µM (inactive) | > 100 µM (inactive) |
| CCC1CN2CCc3c([nH]c4ccccc34)C2C[C@@H]1CC(=O)N(C)C (stereo partly drawn) | > 100 µM (inactive) | > 100 µM (inactive) | 21.4 µM (inactive) | > 100 µM (inactive) | > 100 µM (inactive) | > 100 µM (inactive) | > 100 µM (inactive) | > 100 µM (inactive) | > 100 µM (inactive) | 51.6 µM (inactive) | > 100 µM (inactive) | > 100 µM (inactive) | > 100 µM (inactive) | 39.6 µM (inactive) | > 100 µM (inactive) | > 100 µM (inactive) | > 100 µM (inactive) |
| O=C(Cc1ccccc1)N/N=C(\C1=Nc2ccc([N+](=O)[O-])cc2NC1O)C(O)c1ccc([N+](=O)[O-])cc1 (stereo not drawn) | > 100 µM (inactive) | 52.8 µM (inactive) | > 100 µM (inactive) | > 100 µM (inactive) | > 100 µM (inactive) | 13.8 µM (inactive) | > 100 µM (inactive) | > 100 µM (inactive) | 68.9 µM (inactive) | > 100 µM (inactive) | > 100 µM (inactive) | 64.1 µM (inactive) | 30.8 µM (inactive) | > 100 µM (inactive) | > 100 µM (inactive) | > 100 µM (inactive) | 28.2 µM (inactive) |
| Cc1cc(N(CCC#N)CCC#N)ccc1/C=C1N=C(/C=C/c2ccccc2)N(c2ccc(S(N)(=O)=O)cc2)C\1=O |  | > 100 µM (inactive) | > 100 µM (inactive) | > 100 µM (inactive) | > 100 µM (inactive) | > 100 µM (inactive) | > 100 µM (inactive) | > 100 µM (inactive) | > 100 µM (inactive) | > 100 µM (inactive) | > 100 µM (inactive) | > 100 µM (inactive) | > 100 µM (inactive) | > 100 µM (inactive) | > 100 µM (inactive) | > 100 µM (inactive) | > 100 µM (inactive) |
| Cc1cc(Cl)ccc1NC(=O)C(=O)Cc1occc(=O)c1O | > 100 µM (inactive) | > 100 µM (inactive) | > 100 µM (inactive) | > 100 µM (inactive) | > 100 µM (inactive) | > 100 µM (inactive) | > 100 µM (inactive) | > 100 µM (inactive) | > 100 µM (inactive) | > 100 µM (inactive) | > 100 µM (inactive) | > 100 µM (inactive) | > 100 µM (inactive) | > 100 µM (inactive) | > 100 µM (inactive) | > 100 µM (inactive) | > 100 µM (inactive) |
| CC1=C(C(=O)Nc2cccc(Cl)c2)C(c2ccccc2F)C(C(=O)Nc2cccc(Cl)c2)=C(C)N1 | 6.22 µM (inactive) | 7.94 µM (inactive) | 6.79 µM (inactive) | 13.9 µM (inactive) | 15 µM (inactive) | 4.61 µM (inactive) | 7.78 µM (inactive) | 12.2 µM (inactive) | 13.5 µM (inactive) | 1.15 µM (inactive) | 11.6 µM (inactive) | 11.2 µM (inactive) | 5.33 µM (inactive) | 21.5 µM (inactive) | 19.2 µM (inactive) | 21.5 µM (inactive) | 4.79 µM (inactive) |
